Source: the NIST ThermoML archive (doi:10.1021/je900938b)

Test: xn = mol fraction of the nth substance listed
Details: 101 kPa, Liquid; for mass density: Pycnometric method

OCC(O)CO [glycerol] + OCCO
Details | mass density [kg/m3] | viscosity [mPa·s]
298.15 K, x1 = 0.1001 | 1129.2 | 25.1
298.15 K, x1 = 0.2002 | 1147.2 | 37.4
298.15 K, x1 = 0.3001 | 1164 | 55
298.15 K, x1 = 0.4002 | 1180.2 | 82.8
298.15 K, x1 = 0.4991 | 1195 | 121.4
298.15 K, x1 = 0.6011 | 1209.4 | 184.2
298.15 K, x1 = 0.7015 | 1222.6 | 272.9
298.15 K, x1 = 0.7981 | 1234.5 | 405.9
298.15 K, x1 = 0.8961 | 1246.1 | 611.8
298.15 K, x1 = 1 | 1257.8 | 943.8
303.15 K, x1 = 0.1001 | 1126.3 | 20.7
303.15 K, x1 = 0.2002 | 1144.4 | 30.3
303.15 K, x1 = 0.3001 | 1161.2 | 43.1
303.15 K, x1 = 0.4002 | 1177.3 | 64.2
303.15 K, x1 = 0.4991 | 1192.2 | 91.4
303.15 K, x1 = 0.6011 | 1206.7 | 134
303.15 K, x1 = 0.7015 | 1219.7 | 195
303.15 K, x1 = 0.7981 | 1231.5 | 285.9
303.15 K, x1 = 0.8961 | 1243.2 | 422.7
303.15 K, x1 = 1 | 1254.7 | 628.9
308.15 K, x1 = 0.1001 | 1122.9 | 17
308.15 K, x1 = 0.2002 | 1141.2 | 24.1
308.15 K, x1 = 0.3001 | 1158.2 | 33.9
308.15 K, x1 = 0.4002 | 1174.5 | 48.5
308.15 K, x1 = 0.4991 | 1189.5 | 69.4
308.15 K, x1 = 0.6011 | 1204 | 100.2
308.15 K, x1 = 0.7015 | 1217 | 142.4
308.15 K, x1 = 0.7981 | 1229.1 | 206.2
308.15 K, x1 = 0.8961 | 1240.7 | 299.9
308.15 K, x1 = 1 | 1252.2 | 431.9
313.15 K, x1 = 0.1001 | 1119.9 | 14
313.15 K, x1 = 0.2002 | 1138.2 | 19.6
313.15 K, x1 = 0.3001 | 1155.2 | 27
313.15 K, x1 = 0.4002 | 1171.6 | 38.2
313.15 K, x1 = 0.4991 | 1186.7 | 52.6
313.15 K, x1 = 0.6011 | 1201.3 | 75.2
313.15 K, x1 = 0.7015 | 1214.3 | 107
313.15 K, x1 = 0.7981 | 1226.5 | 145.2
313.15 K, x1 = 0.8961 | 1238 | 204.6
313.15 K, x1 = 1 | 1249.4 | 295.9
318.15 K, x1 = 0.1001 | 1116.3 | 11.7
318.15 K, x1 = 0.2002 | 1134.7 | 16.1
318.15 K, x1 = 0.3001 | 1151.8 | 21.7
318.15 K, x1 = 0.4002 | 1168.2 | 30.6
318.15 K, x1 = 0.4991 | 1183.3 | 41.1
318.15 K, x1 = 0.6011 | 1197.8 | 57.3
318.15 K, x1 = 0.7015 | 1210.9 | 81
318.15 K, x1 = 0.7981 | 1223.1 | 108.2
318.15 K, x1 = 0.8961 | 1234.7 | 148.4
318.15 K, x1 = 1 | 1245.8 | 185.8
323.15 K, x1 = 0.1001 | 1113.4 | 9.65
323.15 K, x1 = 0.2002 | 1131.8 | 13.1
323.15 K, x1 = 0.3001 | 1148.7 | 17.9
323.15 K, x1 = 0.4002 | 1165.2 | 24.4
323.15 K, x1 = 0.4991 | 1180.1 | 33.6
323.15 K, x1 = 0.6011 | 1194.6 | 45.3
323.15 K, x1 = 0.7015 | 1207.9 | 62
323.15 K, x1 = 0.7981 | 1219.9 | 82.4
323.15 K, x1 = 0.8961 | 1231.2 | 111
323.15 K, x1 = 1 | 1242.3 | 151.2
328.15 K, x1 = 0.1001 | 1109.4 | 8.31
328.15 K, x1 = 0.2002 | 1128 | 11
328.15 K, x1 = 0.3001 | 1145.1 | 14.6
328.15 K, x1 = 0.4002 | 1161.7 | 20.1
328.15 K, x1 = 0.4991 | 1176.7 | 26.5
328.15 K, x1 = 0.6011 | 1191.4 | 36
328.15 K, x1 = 0.7015 | 1204.7 | 48.1
328.15 K, x1 = 0.7981 | 1216.9 | 64.4
328.15 K, x1 = 0.8961 | 1228.3 | 84.6
328.15 K, x1 = 1 | 1239.3 | 108.4
333.15 K, x1 = 0.1001 | 1106 | 7.06
333.15 K, x1 = 0.2002 | 1124.6 | 9.17
333.15 K, x1 = 0.3001 | 1141.8 | 12.4
333.15 K, x1 = 0.4002 | 1158.4 | 16.4
333.15 K, x1 = 0.4991 | 1173.5 | 21.5
333.15 K, x1 = 0.6011 | 1188.2 | 28.4
333.15 K, x1 = 0.7015 | 1201.5 | 37.6
333.15 K, x1 = 0.7981 | 1213.8 | 49.4
333.15 K, x1 = 0.8961 | 1225.3 | 66.2
333.15 K, x1 = 1 | 1236.1 | 84.8
338.15 K, x1 = 0.1001 | 1102.8 | 6.1
338.15 K, x1 = 0.2002 | 1121.4 | 7.81
338.15 K, x1 = 0.3001 | 1138.6 | 10.5
338.15 K, x1 = 0.4002 | 1155.1 | 13.8
338.15 K, x1 = 0.4991 | 1170.2 | 18.1
338.15 K, x1 = 0.6011 | 1185 | 23.5
338.15 K, x1 = 0.7015 | 1198.3 | 30.7
338.15 K, x1 = 0.7981 | 1210.6 | 39.5
338.15 K, x1 = 0.8961 | 1222.2 | 50.9
338.15 K, x1 = 1 | 1232.8 | 62.2
